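Values below derive from 48-hour exposures of cells grown in 96-well plates, with endpoints linearly interpolated between the two concentrations bracketing the appropriate inhibition level. TGI: total growth inhibition.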
Tests used:
Test in all cases: NCI-60 cell line screen, 48 h
[1] = system: A549 NSCLC
[2] = system: ACHN renal
[3] = system: BT-549 breast
[4] = system: EKVX NSCLC
[5] = system: HOP-62 NSCLC
[6] = system: KM12 colon
[7] = system: OVCAR-4 ovarian
[8] = system: SK-MEL-5 melanoma
[9] = system: UACC-62 melanoma
[10] = system: HL-60(TB) leukemia

| Structure (SMILES) | TGI [1] | TGI [2] | TGI [3] | TGI [4] | TGI [5] | TGI [6] | TGI [7] | TGI [8] | TGI [9] | TGI [10] |
| --- | --- | --- | --- | --- | --- | --- | --- | --- | --- | --- |
| Cc1sc2nc(-c3cc([N+](=O)[O-])c(Cl)cc3Cl)c(/C=N/N=C(N)N)n2c1C | > 100 µM | 39.2 µM | 12 µM | 48.4 µM | > 100 µM | 19.5 µM | 9 µM | 27.1 µM | 39.5 µM |  |
| Cc1nc2c(n1C(C)(C)C)C(=O)c1ccccc1C2=O | > 100 µM | > 100 µM |  | > 100 µM | > 100 µM | > 100 µM | > 100 µM | > 100 µM | > 100 µM | > 100 µM |
| Cc1ccnc2[nH]c(-c3cccc(Cl)c3)cc(=O)c12 | > 100 µM | > 100 µM |  | > 100 µM | > 74.8 µM | > 47.8 µM | > 100 µM | > 35.7 µM | > 100 µM | 0.0611 µM |
| C1CSCCCSCCSCCCSC1 | > 100 µM | > 100 µM | > 100 µM | > 100 µM | > 100 µM |  | > 100 µM | > 100 µM | > 100 µM |  |
| O=C(/C=C/c1cccc(Br)c1)c1cccs1 | 36.2 µM | 39.8 µM |  | 37.4 µM | 73.8 µM | 31.6 µM | 31.8 µM | 30.7 µM | 32.7 µM | 17.7 µM |
| C/C(=N/NC(=S)Nc1ccccc1Cl)c1cccc(/C(C)=N\NC(=S)Nc2ccccc2Cl)n1 | > 100 µM | > 100 µM |  | > 100 µM | > 100 µM | > 100 µM | > 100 µM | > 100 µM | > 100 µM | > 100 µM |
| COc1ccccc1-c1cc(=O)c2ccccc2[nH]1 | > 100 µM | > 100 µM |  | > 100 µM | > 100 µM | > 100 µM |  |  | > 100 µM | > 100 µM |
| COc1ccc(O[C@H](COCc2ccccc2)C[C@@H]2COC(C)(C)O2)cc1 | > 100 µM | > 100 µM | > 100 µM | > 100 µM | > 100 µM | > 100 µM | > 100 µM | > 100 µM | > 100 µM |  |
| CC(C)SC(C)(NC(=O)C1C(C)(C)CCC1(C)C)C(=O)O (stereo unspecified) | > 100 µM | > 100 µM |  | > 100 µM | > 100 µM |  |  | > 100 µM |  | > 100 µM |
| O=c1c(SSc2coc3cc(F)ccc3c2=O)coc2cc(F)ccc12 | > 100 µM | 26.1 µM | > 100 µM | 99.3 µM | > 100 µM | 28.5 µM |  | 46.2 µM | 36.1 µM | 54.7 µM |
| CCCCc1c(C(=O)OC(C)(C)C)cc(C#Cc2cc(C(=O)OC(C)(C)C)c(CCCC)c(C(=O)OC(C)(C)C)c2)cc1C(=O)OC(C)(C)C | > 100 µM | > 100 µM | > 100 µM | > 100 µM | > 100 µM | > 100 µM | > 100 µM | > 100 µM | > 100 µM |  |
| O=C(Nc1cccc(C(F)(F)F)c1)O/N=C(/Cl)CCl | > 100 µM | > 100 µM |  | > 100 µM | > 100 µM | > 100 µM | > 100 µM | > 100 µM |  | 38.7 µM |
| COc1ccc2[nH]c(Cl)c(/C=C3/C(=O)Nc4cc(C)c(OC)cc43)c2c1 | 92.6 µM | 21.4 µM | 21.5 µM | 22.7 µM | 18.5 µM | 23.2 µM |  | 6.32 µM | 15.2 µM | 6.08 µM |
| CN(C(=O)Cc1ccc(Cl)c(Cl)c1)[C@H]1CCCC[C@@H]1[N+]1(C)CCCC1 | > 100 µM | > 100 µM | > 100 µM | > 100 µM | > 100 µM | > 100 µM | > 100 µM | > 100 µM | > 100 µM |  |
| O=C(O)CCCCCOc1cccnc1/C=N/NC1=NCCN1 | > 100 µM | > 100 µM |  | > 100 µM | > 100 µM | > 100 µM | > 100 µM | > 100 µM | > 100 µM | > 100 µM |
| CC(C)C(C/C=C1\CC(CO)(COC(=O)c2ccccc2)OC1=O)C(C)C (stereo unspecified) | 30.5 µM | 32 µM | 36.9 µM | 29.8 µM | 28.7 µM | 35.6 µM | 35.6 µM | 29.7 µM | > 100 µM |  |
| CCOc1ccc(/C=C(\Cl)c2ccc(OC)c(OC)c2)cc1 | > 100 µM | > 100 µM |  | > 100 µM | > 100 µM |  | > 100 µM | > 100 µM | > 100 µM | > 100 µM |
| C=C1C(=O)OC2(C)C3CCC(C3)C12 (stereo unspecified) | > 100 µM | > 100 µM |  | > 100 µM | > 100 µM | > 100 µM | > 100 µM | > 100 µM | > 100 µM | 84.6 µM |

| Structure (SMILES) | TGI [1] | TGI [2] | TGI [3] | TGI [4] | TGI [5] | TGI [6] | TGI [7] | TGI [8] | TGI [9] | TGI [10] |
| --- | --- | --- | --- | --- | --- | --- | --- | --- | --- | --- |
| CCOC(=O)Nc1c(C#N)[n+]([O-])c2cc(Cl)c(Cl)cc2[n+]1[O-] | 69.8 µM |  | 36.3 µM |  | > 100 µM | 64.8 µM | 29.4 µM | 24.9 µM | 31.1 µM |  |
| COC(=O)C(CCc1ccccc1I)C1=CCC2(CC1)OCCO2 (stereo unspecified) | > 100 µM | > 100 µM |  | > 100 µM | > 100 µM | > 100 µM | > 100 µM | 40 µM | > 100 µM | 17.4 µM |
| C=CCOCn1cnc2c(N)ncnc21 | > 100 µM | > 100 µM |  | > 100 µM | > 100 µM | > 100 µM | > 100 µM | > 100 µM | > 100 µM | > 100 µM |
| CC(C(=O)ON1C(=O)CCC1=O)c1ccc(C(=O)c2ccccc2)s1 (stereo unspecified) | > 100 µM | > 100 µM | > 100 µM | > 100 µM | > 100 µM | > 100 µM | > 100 µM | > 100 µM | > 100 µM |  |
| COc1ccc(S(=O)(=O)O)cc1-n1nc(C(=O)Nc2ccccc2)n[n+]1-c1cc(S(=O)(=O)[O-])ccc1OC | > 100 µM | > 100 µM |  | > 100 µM | > 100 µM | > 100 µM | > 100 µM | > 100 µM | > 100 µM | > 100 µM |
| O=C(Nc1nc2ccccc2n1Cc1ccccc1)NC12CC3CC(CC(C3)C1)C2 | > 100 µM | > 100 µM |  | > 100 µM | > 100 µM | > 100 µM | 82.8 µM | > 100 µM | > 100 µM | > 100 µM |
| CC(C)[C@@H]1CC[C@@H](C)C[C@H]1OC(=O)/C=C1/C2C=CC(O2)C1C(=O)O[C@@H]1C[C@H](C)CC[C@H]1C(C)C (stereo partly specified) | > 100 µM | > 100 µM |  | > 100 µM | > 100 µM | > 100 µM | > 100 µM | > 100 µM | > 100 µM | > 100 µM |
| O=[N+]([O-])/C(C(Cl)=C(Cl)Cl)=C1\NCCO1 | > 100 µM | > 100 µM |  | > 100 µM | > 100 µM | > 100 µM | > 100 µM | > 100 µM | > 100 µM | > 100 µM |
| COC(=O)C(C)(N=Cc1ccccc1)c1ccccc1 (stereo unspecified) | > 100 µM | > 100 µM |  | > 100 µM | > 100 µM | > 100 µM | > 100 µM | > 100 µM | > 100 µM | > 100 µM |
| O=c1/c(=C\c2ccccc2)sc2n1C(c1ccccc1)C1(O)CCCCC1N=2 (stereo unspecified) | > 100 µM | > 100 µM | > 100 µM |  | > 100 µM |  | > 100 µM | > 100 µM | > 100 µM | > 100 µM |
| O=C(N=C1SCCN1C(=O)C(C(F)(F)F)C(F)(F)F)C(C(F)(F)F)C(F)(F)F | > 100 µM | > 100 µM |  | > 100 µM | > 100 µM |  | > 100 µM | > 100 µM |  | > 100 µM |
| CCCCCCCCCCCCCCCCCCNc1ccn(C2OC(COP(=O)(O)OCC3CCC(n4cnc5c(=O)[nH]cnc54)O3)C(O)C2O)c(=O)n1 (stereo unspecified) | > 100 µM | > 100 µM | > 100 µM | > 100 µM | > 100 µM | > 100 µM | > 100 µM | > 100 µM | > 100 µM |  |
| CCOC(=O)Oc1cc2c(c(OC)c1OC)-c1ccc(SC)c(=O)cc1C(NC(=O)C(F)(F)F)CC2 (stereo unspecified) | > 100 µM | 52.8 µM |  |  | > 100 µM |  |  | 0.00191 µM | > 100 µM | 0.0148 µM |
| O=C1CSc2nc3ccccc3n2/C=N\N1 | > 100 µM | > 100 µM |  |  |  | > 100 µM | > 100 µM | > 100 µM | > 100 µM |  |
| Cn1c(C(C#N)c2nc(Cl)ncc2Br)nc2ccccc21 (stereo unspecified) | > 100 µM | > 100 µM | > 100 µM | > 100 µM | > 100 µM | > 100 µM | > 100 µM | > 100 µM |  |  |
| CCCCCC(=O)c1ccc2[nH]c3c(C)cc([N+](=O)[O-])c(C)c3c2c1 | > 100 µM | > 100 µM |  | > 100 µM | > 100 µM | > 100 µM | > 100 µM | > 100 µM |  | > 100 µM |
| C=CC1ON(Cc2ccccc2)CCc2cc(OC)c(OC)cc21 (stereo unspecified) | > 100 µM | > 100 µM | > 100 µM | > 100 µM | > 100 µM | > 100 µM |  | 31.6 µM | > 100 µM | 94.4 µM |
| CCC1C(c2cccc(OC)c2O)c2cc3c(cc2OC1N1CCCC1)OCO3 (stereo unspecified) | 54.7 µM | 84.3 µM |  | > 100 µM | 46.3 µM | 50.8 µM |  | 22.8 µM | 65.9 µM |  |
